Measurements taken from ChEMBL document CHEMBL1201862, “PubChem BioAssay data set” (2004).
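Cells were grown in 96-well plates and exposed to each compound for 48 hours at five concentrations; endpoints were interpolated linearly between bracketing concentrations, or set to the highest concentration if not reached. GI50 marks 50% less growth.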 Activity calls are given as the source filed them. Rule as the data show it: active = GI50 up to about 1.1 µM and inactive = higher.

Legend:
Assay in all cases: DTP human tumour cell line panel, 48 h
HOP-92 = tested on: HOP-92
NCI-H23 = tested on: NCI-H23
COLO 205 = tested on: COLO 205
UO-31 = tested on: UO-31
MDA-MB-435 = tested on: MDA-MB-435
SR = tested on: SR
KM12 = tested on: KM12
SK-MEL-2 = tested on: SK-MEL-2
DU-145 = tested on: DU-145
IGROV-1 = tested on: IGROV-1
A498 = tested on: A498
SW-620 = tested on: SW-620
CCRF-CEM = tested on: CCRF-CEM
UACC-62 = tested on: UACC-62
PC-3 = tested on: PC-3
HOP-62 = tested on: HOP-62
MOLT-4 = tested on: MOLT-4
OVCAR-8 = tested on: OVCAR-8
786-0 = tested on: 786-0
SF-539 = tested on: SF-539
NCI-H460 = tested on: NCI-H460
TK-10 = tested on: TK-10
T47D = tested on: T47D
HCT-116 = tested on: HCT-116
SK-MEL-5 = tested on: SK-MEL-5
K562 = tested on: K562
UACC-257 = tested on: UACC-257
OVCAR-3 = tested on: OVCAR-3
MCF7 = tested on: MCF7
CAKI-1 = tested on: CAKI-1
SNB-75 = tested on: SNB-75
U-251 = tested on: U-251
SK-MEL-28 = tested on: SK-MEL-28
SN12C = tested on: SN12C
HT-29 = tested on: HT-29
OVCAR-4 = tested on: OVCAR-4
HCT-15 = tested on: HCT-15
MDA-MB-231 = tested on: MDA-MB-231
HL-60 = tested on: HL-60
Malme-3M = tested on: Malme-3M
A549 = tested on: A549
SK-OV-3 = tested on: SK-OV-3
BT-549 = tested on: BT-549
LOX IMVI = tested on: LOX IMVI
RPMI-8226 = tested on: RPMI-8226
SF-268 = tested on: SF-268
RXF 393 = tested on: RXF 393
SNB-19 = tested on: SNB-19
M14 = tested on: M14
MDA-N = tested on: MDA-N
NCI-H226 = tested on: NCI-H226
Hs-578T = tested on: Hs-578T
NCI/ADR-RES = tested on: NCI/ADR-RES
EKVX = tested on: EKVX
SF-295 = tested on: SF-295
ACHN = tested on: ACHN
OVCAR-5 = tested on: OVCAR-5
NCI-H522 = tested on: NCI-H522
HCC 2998 = tested on: HCC 2998

Measured: GI50

COc1ccc2[nH]c(CCNC(=O)c3cc([N+](=O)[O-])cc([N+](=O)[O-])c3)cc2c1
> 100 µM: HCT-15
inactive: HOP-92 21.2 µM | NCI-H23 47.9 µM | COLO 205 > 100 µM | UO-31 > 100 µM | MDA-MB-435 > 100 µM | SR > 100 µM | KM12 > 100 µM | SK-MEL-2 65.8 µM | DU-145 > 100 µM | IGROV-1 26.5 µM | A498 > 100 µM | SW-620 > 100 µM | CCRF-CEM > 100 µM | UACC-62 36.1 µM | PC-3 > 100 µM | HOP-62 12.3 µM | MOLT-4 > 100 µM | OVCAR-8 44.5 µM | 786-0 21.2 µM | SF-539 29.8 µM | NCI-H460 > 100 µM | TK-10 46.8 µM | T47D 29.9 µM | HCT-116 > 100 µM | SK-MEL-5 > 100 µM | K562 > 100 µM | UACC-257 > 100 µM | OVCAR-3 > 100 µM | MCF7 69.3 µM | CAKI-1 26.1 µM | SNB-75 19.4 µM | U-251 14.7 µM | SK-MEL-28 > 100 µM | SN12C 56 µM | HT-29 > 100 µM | OVCAR-4 > 100 µM | MDA-MB-231 25.4 µM | HL-60 > 100 µM | Malme-3M > 100 µM | A549 > 100 µM | SK-OV-3 41 µM | BT-549 > 100 µM | LOX IMVI 64.1 µM | RPMI-8226 > 100 µM | SF-268 25 µM | RXF 393 18.1 µM | SNB-19 35.6 µM | M14 > 100 µM | MDA-N > 100 µM | NCI-H226 71.1 µM | Hs-578T 58.9 µM | NCI/ADR-RES > 100 µM

Cc1cc(C)nc(NS(=O)(=O)c2ccc(NNc3c4ccccc4nc4c(C(=O)Nc5ccc(S(=O)(=O)Nc6cc(C)on6)cc5)cccc34)cc2)n1
inactive: HOP-92 23.7 µM | NCI-H23 46.8 µM | COLO 205 36.4 µM | UO-31 34.7 µM | MDA-MB-435 41.5 µM | SR 24.9 µM | KM12 39.4 µM | SK-MEL-2 22.7 µM | DU-145 49.2 µM | EKVX 19.2 µM | IGROV-1 29 µM | SW-620 39.5 µM | CCRF-CEM 23.1 µM | UACC-62 46.3 µM | PC-3 34.8 µM | HOP-62 82 µM | MOLT-4 32.5 µM | OVCAR-8 35.6 µM | 786-0 51.6 µM | SF-295 57.1 µM | SF-539 34.9 µM | NCI-H460 40.9 µM | ACHN 31.3 µM | TK-10 54.1 µM | T47D 33.5 µM | HCT-116 31.3 µM | SK-MEL-5 31.3 µM | K562 34.5 µM | UACC-257 73.6 µM | OVCAR-3 20.4 µM | MCF7 50.8 µM | OVCAR-5 23.9 µM | CAKI-1 87.5 µM | SNB-75 30.9 µM | U-251 26.7 µM | SN12C 37 µM | HT-29 23.2 µM | OVCAR-4 46.3 µM | MDA-MB-231 33.1 µM | HL-60 30.8 µM | Malme-3M 53.7 µM | NCI-H522 28.2 µM | A549 > 100 µM | SK-OV-3 29 µM | BT-549 72.1 µM | LOX IMVI 32.3 µM | RPMI-8226 42.9 µM | SF-268 27.4 µM | RXF 393 44.1 µM | HCC 2998 23.2 µM | SNB-19 48 µM | M14 53.2 µM | MDA-N 44.2 µM | NCI-H226 25.8 µM | Hs-578T 51.4 µM | NCI/ADR-RES > 100 µM
51.1 µM: HCT-15

O=C(NCCCCCCNC(=O)c1cc(-c2ccccc2)nc2ccccc12)c1cc(-c2ccccc2)nc2ccccc12
> 100 µM: HCT-15
inactive: HOP-92 > 100 µM | NCI-H23 > 100 µM | COLO 205 > 100 µM | UO-31 > 100 µM | MDA-MB-435 > 100 µM | SR > 100 µM | DU-145 > 100 µM | EKVX > 100 µM | IGROV-1 34.8 µM | A498 > 100 µM | SW-620 > 100 µM | CCRF-CEM > 100 µM | UACC-62 > 100 µM | PC-3 > 100 µM | HOP-62 54.3 µM | MOLT-4 > 100 µM | OVCAR-8 > 100 µM | 786-0 31.6 µM | SF-295 84.7 µM | SF-539 > 100 µM | NCI-H460 > 100 µM | ACHN > 100 µM | TK-10 > 100 µM | T47D > 100 µM | HCT-116 > 100 µM | SK-MEL-5 > 100 µM | K562 > 100 µM | UACC-257 > 100 µM | OVCAR-3 > 100 µM | MCF7 > 100 µM | OVCAR-5 > 100 µM | CAKI-1 > 100 µM | SNB-75 33.3 µM | U-251 88.3 µM | SK-MEL-28 > 100 µM | SN12C > 100 µM | HT-29 > 100 µM | OVCAR-4 > 100 µM | MDA-MB-231 > 100 µM | HL-60 > 100 µM | Malme-3M > 100 µM | NCI-H522 > 100 µM | A549 > 100 µM | SK-OV-3 > 100 µM | BT-549 > 100 µM | LOX IMVI > 100 µM | RPMI-8226 > 100 µM | SF-268 > 100 µM | RXF 393 > 100 µM | SNB-19 > 100 µM | M14 > 100 µM | MDA-N > 100 µM | NCI-H226 > 100 µM | Hs-578T 40.6 µM | NCI/ADR-RES > 100 µM
